Reference: the NIST ThermoML archive (doi:10.1016/j.jct.2013.11.004)
Numbers after ± are expanded uncertainties.

Conditions: DTA

SMILES	Glass transition temperature
CCC(=O)[O-].CCn1cc[n+](C)c1 [1-ethyl-3-methylimidazolium propionate]	-83.17 ± 4 °C
CCC(=O)[O-].CCCn1cc[n+](C)c1 [1-propyl-3-methylimidazolium propionate]	-82.92 ± 4 °C
